From patent US12178811B2, “Methods of treating depressive disorders” (priority 2019, dated 2024) come the findings set out here.

SMILES strings stand for the structures. “And” between values parts separate entries of the source, which are not always exact repeats. Identical values can stand only once. Like-named read-outs stand apart in the source and are kept apart here.

One series has as its system male CD-1 mice. Briefly: Mouse forced swim test. In kind it is in vivo. The conditions noted are these: for Latency to Immobility / Time Immobile 0-2 min / Time Immobile 0-6 min / Time Immobile 2-6 min: 30 min pretreatment, individual animals; for Latency to Immobility, Average / Time Immobile 0-2 min, Average / Time Immobile 0-6 min, Average / Time Immobile 2-6 min, Average: group average N = 10. As to the method: Objective: A study was performed to assess the potential efficacy of Compound A using the mouse forced swim test. The forced swim test is a model of behavioral despair, and is sensitive to detection of various classes of antidepressant drugs (Can et al., The Mouse Forced Swim Test. J. Vis. Exp. 2012 (59), e3638, DOI:10.3791/3638). Study Design: Forty (40) male CD-1 mice received a 1-week period of acclimation to the test facility prior to the commencement of testing (events summarized in Table 1). […] All animal use procedures were performed in accordance with the principles of the Canadian Council on Animal Care (CCAC). Formulation of Compound A: Compound A (99.4% pure) was weighed (no correction for purity) and dissolved in DMSO at 20× the intended final concentration. The 20×DMSO stock solution of Compound A was diluted 20 fold with 0.5% methyl cellulose in water to achieve the final desired concentration. […] The above formulation was kept at room temperature and stirred continuously or vortex mixed prior to each dose administration. Forced swim test: Forty (40) male CD-1 mice received the appropriate dose of the vehicle, test article, or positive control (treatments summarized in Table 3). Following a pre-determined pre-treatment time (Can et al., 2012), animals were gently placed into tall glass cylinders filled with water (20-25° C.). […] The swim test involved scoring the duration of immobility. Over a 6-minute test session, the latency to first immobility was recorded (in seconds). […] Statistical Analysis: The results in Table 4 were tested for significance using T-, univariate, and Dunnett's tests as shown in Tables 5-14.

Series [1] in a line: Blood and brain collection after forced swim test (total brain-to-plasma ratio). Type of series: in vivo. To be noted: CD-1, brain and plasma, mouse, immediately following the forced swim test, read-out: total brain-to-plasma ratio (B/P ratio). As to the method: Blood and Brain Collection: Immediately following the forced swim test, all animals dosed with test article were anesthetized with isoflurane inhalant, and terminal blood collection (˜1 ml) was performed via cardiac puncture into potassium EDTA blood collection tubes (SOP ROD.14.02). Plasma was isolated from whole blood by centrifugation at 3000 rpm at 4° C. for 5 minutes. Once isolated, plasma was placed in cryovials and frozen at −80° C. until shipment for bioanalysis. Following blood collection, animals were decapitated and the whole brain collected as per standard operating procedure (SOP ROD.59). Brains were weighed, flash frozen, and stored at −80° C. until shipment.

`Cc1cc(N2CCc3cc(F)ccc3C2)cc(C)c1NC(=O)CC(C)(C)C` [Compound A, N-[4-(6-fluoro-3,4-dihydro-1H-isoquinolin-2-yl)-2,6-dimethylphenyl]-3,3-dimethylbutanamide]: in the series with male CD-1 mice (Compound A 1 mg/kg IP), the “Latency to Immobility” value is 77 s and 84 s and 206 s and 100 s and 70 s and 109 s and 144 s and 105 s and 130 s and 80 s; the “Time Immobile 0-2 min” value is 32 sec and 28 sec and 0 sec (3×) and 16 sec and 20 sec (2×) and 4 sec and 7 sec; the “Time Immobile 0-6 min” value was 174 s and 198 s and 33 s and 125 s and 169 s and 196 s and 134 s and 141 s and 170 s; the “Time Immobile 2-6 min” value was 142 s and 170 s and 33 s and 109 s and 149 s and 192 s and 134 s and 189 s and 141 s and 150 s. Further, in the series with male CD-1 mice (Compound A 1 mg/kg IP), the “Latency to Immobility, Average” value was 110.5 s; the “Time Immobile 0-2 min, Average” value amounted to 12.7 s; the “Time Immobile 0-6 min, Average” value was determined as 153.6 s; the “Time Immobile 2-6 min, Average” value was determined as 140.9 s. Moreover, in the series on male CD-1 mice (Compound A 3 mg/kg IP), the “Latency to Immobility” value was 135 s and 165 s and 155 s and 86 s and 150 s and 127 s and 192 s and 162 s and 83 s and 105 s; the “Time Immobile 0-2 min” value was 0 sec (7×) and 23 sec and 21 sec and 15 sec; the “Time Immobile 0-6 min” value is 166 s and 144 s and 122 s and 207 s and 82 s and 146 s and 101 s and 90 s and 184 s and 181 s; the “Time Immobile 2-6 min” value was 166 s and 144 s and 122 s and 184 s and 82 s and 146 s and 101 s and 90 s and 163 s. Moreover, in the series with male CD-1 mice (Compound A 3 mg/kg IP), the “Latency to Immobility, Average” value worked out at 136.0 s; the “Time Immobile 0-2 min, Average” value came out at 5.9 s; the “Time Immobile 0-6 min, Average” value was found to be 142.3 s; the “Time Immobile 2-6 min, Average” value was determined as 136.4 s. In the series on male CD-1 mice (Tables 5-13), the “effect in the mouse forced swim test model (in words)” value is given as “statistically significant effects”. For the same molecule, in series [1] (1 mg/kg IP), the Kp at 36 min came to 2.2. In series [1] (3 mg/kg IP), the Kp at 36 min was 2.2.
